Here are results for five compounds from paper PMC7587597, “Synthesis and Biological Evaluation of 1,3-Dideazapurine-Like 7-Amino-5-Hydroxymethyl-Benzimidazole Ribonucleoside Analogues as Aminoacyl-tRNA Synthetase Inhibitors” (Molecules, 2020).

Assay [1] deals with T1, SerRS (Klebsiella pneumoniae, UniProt W9BNU9).
T1 construct: gene serS
The assay is described as follows: X-ray crystal structure ([…] Å), soaked crystals. In kind it is binding.

Assay [2] deals with T2, SerRS (Escherichia coli, UniProt P0A8L1).
T2 construct: gene serS
T2 sequence (P0A8L1 whole entry): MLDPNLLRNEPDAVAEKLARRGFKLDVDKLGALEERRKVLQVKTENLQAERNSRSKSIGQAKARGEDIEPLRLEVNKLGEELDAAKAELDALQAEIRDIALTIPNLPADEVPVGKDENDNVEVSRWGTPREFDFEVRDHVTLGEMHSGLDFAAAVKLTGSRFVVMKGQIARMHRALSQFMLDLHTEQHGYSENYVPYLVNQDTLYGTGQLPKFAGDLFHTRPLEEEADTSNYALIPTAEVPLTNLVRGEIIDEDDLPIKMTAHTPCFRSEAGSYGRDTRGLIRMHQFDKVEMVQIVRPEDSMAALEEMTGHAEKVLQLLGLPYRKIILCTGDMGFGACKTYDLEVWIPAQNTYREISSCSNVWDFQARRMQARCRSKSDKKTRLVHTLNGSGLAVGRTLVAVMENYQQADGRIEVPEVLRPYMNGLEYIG
The assay is described as follows: radiolabel aminoacyl transfer assay, % inhibition at […]. Type of assay: biochemical.

The target in assay [3] is T3, LeuRS (Neisseria gonorrhoeae, UniProt B4RNT1).
T3 construct: gene leuS
T3 sequence (B4RNT1 whole entry): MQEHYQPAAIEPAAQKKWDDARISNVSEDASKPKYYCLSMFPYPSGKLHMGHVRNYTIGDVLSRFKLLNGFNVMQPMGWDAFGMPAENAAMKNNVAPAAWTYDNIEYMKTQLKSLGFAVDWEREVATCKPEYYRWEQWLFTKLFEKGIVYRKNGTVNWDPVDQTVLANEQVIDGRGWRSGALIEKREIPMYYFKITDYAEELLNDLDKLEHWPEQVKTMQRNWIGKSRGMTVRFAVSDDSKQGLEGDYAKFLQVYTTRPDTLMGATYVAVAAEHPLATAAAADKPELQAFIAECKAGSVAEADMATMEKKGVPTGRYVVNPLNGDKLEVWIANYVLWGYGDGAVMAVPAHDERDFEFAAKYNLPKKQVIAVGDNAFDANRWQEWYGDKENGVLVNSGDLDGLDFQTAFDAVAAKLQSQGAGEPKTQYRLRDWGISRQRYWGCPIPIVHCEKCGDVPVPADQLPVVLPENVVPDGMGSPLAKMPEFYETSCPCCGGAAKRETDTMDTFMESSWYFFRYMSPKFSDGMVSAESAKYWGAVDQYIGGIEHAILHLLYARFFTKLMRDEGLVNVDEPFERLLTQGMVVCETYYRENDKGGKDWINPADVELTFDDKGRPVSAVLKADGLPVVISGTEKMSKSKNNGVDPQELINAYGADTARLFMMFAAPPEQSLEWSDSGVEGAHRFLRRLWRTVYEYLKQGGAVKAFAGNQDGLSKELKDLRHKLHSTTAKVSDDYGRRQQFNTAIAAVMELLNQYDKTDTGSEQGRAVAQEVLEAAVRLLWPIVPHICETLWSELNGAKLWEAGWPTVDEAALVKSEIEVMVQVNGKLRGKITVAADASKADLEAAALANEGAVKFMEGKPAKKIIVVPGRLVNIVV
The assay is described as follows: X-ray crystal structure ([…] Å), soaked crystals. Type of assay: binding.

The target of assay [4] is T4, LeuRS (Escherichia coli, UniProt P07813).
T4 construct: gene leuS
T4 sequence (P07813 whole entry): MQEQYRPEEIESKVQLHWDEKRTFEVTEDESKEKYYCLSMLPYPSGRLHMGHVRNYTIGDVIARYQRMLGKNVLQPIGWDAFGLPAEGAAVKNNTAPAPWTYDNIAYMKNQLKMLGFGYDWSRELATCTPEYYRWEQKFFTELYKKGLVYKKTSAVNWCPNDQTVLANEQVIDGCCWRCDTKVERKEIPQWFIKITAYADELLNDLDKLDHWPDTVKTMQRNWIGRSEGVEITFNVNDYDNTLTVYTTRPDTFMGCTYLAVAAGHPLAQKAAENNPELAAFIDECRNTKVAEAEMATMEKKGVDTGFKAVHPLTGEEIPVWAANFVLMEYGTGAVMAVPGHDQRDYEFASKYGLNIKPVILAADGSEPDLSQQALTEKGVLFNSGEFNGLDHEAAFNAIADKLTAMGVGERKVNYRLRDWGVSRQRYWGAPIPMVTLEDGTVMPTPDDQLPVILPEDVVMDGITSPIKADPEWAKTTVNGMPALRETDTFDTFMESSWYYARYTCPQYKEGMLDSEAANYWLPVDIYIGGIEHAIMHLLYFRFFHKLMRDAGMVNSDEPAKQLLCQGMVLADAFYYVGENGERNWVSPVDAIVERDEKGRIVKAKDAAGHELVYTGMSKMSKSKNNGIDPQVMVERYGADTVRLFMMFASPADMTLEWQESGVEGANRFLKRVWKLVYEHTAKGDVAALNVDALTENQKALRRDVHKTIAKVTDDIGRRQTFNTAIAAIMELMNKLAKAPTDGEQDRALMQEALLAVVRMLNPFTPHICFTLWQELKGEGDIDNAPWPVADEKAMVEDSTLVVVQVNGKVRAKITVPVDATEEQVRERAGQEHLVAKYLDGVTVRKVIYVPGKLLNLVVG
The assay is described as follows: radiolabel aminoacyl transfer assay with purified enzyme (Kiapp). In kind it is biochemical.

Assay [5] deals with T5, AspRS (Thermus thermophilus, UniProt Q5SKD2).
T5 construct: gene aspS1
T5 sequence (Q5SKD2 whole entry): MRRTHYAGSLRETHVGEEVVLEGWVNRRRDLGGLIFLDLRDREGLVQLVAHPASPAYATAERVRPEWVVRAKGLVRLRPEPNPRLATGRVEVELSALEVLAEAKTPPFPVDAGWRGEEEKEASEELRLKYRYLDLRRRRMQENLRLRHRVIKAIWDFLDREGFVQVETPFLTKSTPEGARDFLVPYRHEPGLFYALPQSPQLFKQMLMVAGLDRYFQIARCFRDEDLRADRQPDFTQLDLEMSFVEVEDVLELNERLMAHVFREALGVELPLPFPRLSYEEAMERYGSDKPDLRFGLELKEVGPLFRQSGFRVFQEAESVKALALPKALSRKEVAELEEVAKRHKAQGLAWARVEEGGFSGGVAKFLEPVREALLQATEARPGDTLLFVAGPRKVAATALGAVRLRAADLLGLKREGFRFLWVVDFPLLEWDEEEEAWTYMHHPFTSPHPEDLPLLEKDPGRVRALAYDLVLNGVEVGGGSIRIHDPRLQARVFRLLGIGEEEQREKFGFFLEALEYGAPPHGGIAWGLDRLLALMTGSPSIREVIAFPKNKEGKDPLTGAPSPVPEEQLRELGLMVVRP
Briefly: X-ray crystal structure ([…] Å), soaked crystals. Type of assay: binding.

Assay [6] addresses T6, IleRS (Escherichia coli, UniProt P00956).
T6 construct: gene ileS
Briefly: radiolabel aminoacyl transfer assay with purified enzyme (Kiapp). In kind it is biochemical.

Assay [7] addresses T7, TyrRS (Escherichia coli, UniProt P0AGJ9).
T7 construct: gene tyrS
The assay is described as follows: ([…] Å); radiolabel aminoacylation inhibition (Kiapp). Type of assay: biochemical.

T7 sequence (P0AGJ9 2-424): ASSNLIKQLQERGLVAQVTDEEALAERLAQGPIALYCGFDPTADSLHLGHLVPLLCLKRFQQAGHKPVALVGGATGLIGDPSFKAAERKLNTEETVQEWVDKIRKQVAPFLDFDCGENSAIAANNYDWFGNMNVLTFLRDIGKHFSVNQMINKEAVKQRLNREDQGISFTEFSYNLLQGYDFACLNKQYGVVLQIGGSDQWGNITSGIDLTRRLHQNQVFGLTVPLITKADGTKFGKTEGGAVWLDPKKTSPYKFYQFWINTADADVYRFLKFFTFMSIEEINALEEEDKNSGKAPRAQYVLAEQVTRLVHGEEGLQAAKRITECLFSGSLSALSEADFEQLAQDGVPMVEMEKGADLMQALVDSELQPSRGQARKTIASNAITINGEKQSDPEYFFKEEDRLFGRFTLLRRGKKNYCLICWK
T1 sequence (W9BNU9 1-430): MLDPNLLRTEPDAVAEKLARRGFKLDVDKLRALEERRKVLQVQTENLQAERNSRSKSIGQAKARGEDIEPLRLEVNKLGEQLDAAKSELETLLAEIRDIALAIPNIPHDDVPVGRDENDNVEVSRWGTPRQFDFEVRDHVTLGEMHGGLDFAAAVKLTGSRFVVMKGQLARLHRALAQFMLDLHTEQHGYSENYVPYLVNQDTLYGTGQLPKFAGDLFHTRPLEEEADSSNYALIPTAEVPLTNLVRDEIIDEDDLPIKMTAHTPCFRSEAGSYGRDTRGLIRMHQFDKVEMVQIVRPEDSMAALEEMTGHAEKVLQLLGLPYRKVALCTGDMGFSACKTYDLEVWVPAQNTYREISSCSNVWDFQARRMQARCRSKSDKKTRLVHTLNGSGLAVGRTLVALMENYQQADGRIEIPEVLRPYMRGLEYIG
T6 sequence (P00956 2-938): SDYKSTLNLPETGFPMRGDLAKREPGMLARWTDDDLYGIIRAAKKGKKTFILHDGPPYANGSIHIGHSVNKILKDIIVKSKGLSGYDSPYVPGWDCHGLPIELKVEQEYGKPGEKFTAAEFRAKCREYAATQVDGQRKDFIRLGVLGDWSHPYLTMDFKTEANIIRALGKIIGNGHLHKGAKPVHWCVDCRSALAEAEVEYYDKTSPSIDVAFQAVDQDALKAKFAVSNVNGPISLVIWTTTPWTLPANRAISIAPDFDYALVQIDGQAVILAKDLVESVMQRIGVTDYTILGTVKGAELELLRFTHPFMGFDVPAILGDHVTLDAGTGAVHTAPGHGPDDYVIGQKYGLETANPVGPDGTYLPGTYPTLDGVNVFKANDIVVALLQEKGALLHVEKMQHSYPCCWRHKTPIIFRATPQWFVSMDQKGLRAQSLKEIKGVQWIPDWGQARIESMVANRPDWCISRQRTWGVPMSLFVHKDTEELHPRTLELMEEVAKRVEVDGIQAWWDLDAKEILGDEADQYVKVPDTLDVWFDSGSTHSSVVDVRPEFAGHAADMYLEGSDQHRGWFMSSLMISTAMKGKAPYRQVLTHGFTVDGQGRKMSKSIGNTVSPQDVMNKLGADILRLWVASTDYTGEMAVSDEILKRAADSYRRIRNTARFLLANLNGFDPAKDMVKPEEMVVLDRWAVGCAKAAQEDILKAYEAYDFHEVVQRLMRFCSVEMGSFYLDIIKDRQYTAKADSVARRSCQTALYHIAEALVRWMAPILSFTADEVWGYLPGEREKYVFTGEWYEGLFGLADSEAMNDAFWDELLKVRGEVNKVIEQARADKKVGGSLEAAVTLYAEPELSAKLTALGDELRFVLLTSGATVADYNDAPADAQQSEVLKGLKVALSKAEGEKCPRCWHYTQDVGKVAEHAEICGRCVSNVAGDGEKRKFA

For orientation: inhibition means the change of the read-out against control, counted positive when it falls. For the compound `Nc1cc(CO)cc2ncn([C@@H]3O[C@H](COS(=O)(=O)NC(=O)[C@@H](N)CO)[C@@H](O)C3O)c12` (stereo in doubt) [32c, (2R,3S,4S,5R)-(5-(7-Amino-5-(Hydroxymethyl)-1H-Benzo[d]imidazol-1-yl)-3,4-Dihydroxytetrahydrofuran-2-yl)methyl Serylsulfamate], in assay [1], the “X-ray crystal structure (2.18 Å), soaked crystals” value is “K. pneumoniae SerRS in complex with SerS7HMDDA”. In assay [2], 200 µM produced 54% inhibition.

`CC(C)C[C@H](N)C(=O)NS(=O)(=O)OC[C@H]1O[C@@H](n2cnc3cc(CO)cc(N)c32)C(O)[C@@H]1O` (stereo in doubt) [32e, (2R,3S,4S,5R)-(5-(7-Amino-5-(Hydroxymethyl)-1H-Benzo[d]imidazol-1-yl)-3,4-Dihydroxytetrahydrofuran-2-yl)methyl Leucylsulfamate]: in assay [3], the “X-ray crystal structure (2.25 Å), soaked crystals” value is “N. gonorrhoeae LeuRS in complex with LeuS7HMDDA”. In assay [4], the Ki came to 21.5 ± 1.2 nM.

On to `Nc1cc(CO)cc2ncn([C@@H]3O[C@H](COS(=O)(=O)NC(=O)[C@@H](N)CC(=O)O)[C@@H](O)[C@H]3O)c12` [32d, 3-Amino-4-((((5-(7-Amino-5-(Hydroxymethyl)-1H-Benzo[d]imidazol-1-yl)-3,4-Dihydroxytetrahydrofuran-2-yl)methoxy)sulfonyl)amino)-4-Oxobutanoic Acid], for which, in assay [5], the “X-ray crystal structure (2.15 Å), soaked crystals” value is listed as “T. thermophilus AspRS in complex with AspS7HMDDA”.

Take `CC[C@H](C)[C@H](N)C(=O)NS(=O)(=O)OC[C@H]1O[C@@H](n2cnc3cc(CO)cc(N)c32)[C@@H](O)[C@@H]1O` [32f, (2R,3S,4S,5R)-(5-(7-Amino-5-(Hydroxymethyl)-1H-Benzo[d]imidazol-1-yl)-3,4-Dihydroxytetrahydrofuran-2-yl)methyl Isoleucylsulfamate]: the Ki in assay [6] is 10.8 ± 0.8 nM.

`Nc1cc(CO)cc2ncn([C@@H]3O[C@H](COS(=O)(=O)NC(=O)[C@@H](N)Cc4ccc(O)cc4)[C@@H](O)C3O)c12` (stereo in doubt) [32b, (2R,3S,4S,5R)-(5-(7-Amino-5-(Hydroxymethyl)-1H-Benzo[d]imidazol-1-yl)-3,4-Dihydroxytetrahydrofuran-2-yl)methyl Tyrosylsulfamate] displayed a Ki in assay [7] of 1230 ± 239 nM.
